Our source for the melting point values is a melting point compilation (Tetko et al.; mined from patent text by program, amines drawn as free bases though some values may be those of a salt).

By melting point is commonly meant the temperature of the solid-liquid transition. Take `CCOC(=O)C(=CNn1cnnc1)C(=O)c1cc(F)c(Cl)nc1Cl`: the melting point lay in the range of 89 to 95 °C.
On to `CN(Cc1cccc2c1CN(C1CCC(=O)NC1=O)C2=O)C(=O)NC(C)(C)C` (configuration not stated), for which the melting point lay in the range of 216 to 218 °C.
Compound `Cc1c(Cc2cccc(C(F)(F)F)c2)sc2c(-c3cccc(C(=O)O)c3)cccc12` yielded a melting point of 172 to 173 °C.
In the case of `CCOC(=O)c1sc(NC(=O)c2cc(Br)ccc2O)nc1-c1ccccc1` it was 197 to 199 °C; in that of `Clc1cc(Cl)cc(Oc2cccc(-c3nnc(Nc4ccc(Cl)c(Cl)c4)s3)c2)c1`, 242 to 243 °C; in that of `O=C(O)C(=O)c1ccc(OCc2ccccc2)c(Cl)c1`, 134 to 135 °C.
`CC(=O)N=C(CCSCc1csc(NC(=N)N)n1)NC(C)=O`: the melting point was in the range of 180 to 181 °C.
`CC(=O)Nc1nc(-c2ccc(C(C)(C)C)cc2)c(-c2ccncc2)s1`: the melting point was in the range of 280 to 281 °C.
The compound `Nc1ccc(OC2CCN(C(=O)OCc3ccccc3)C2)cc1CS(=O)(=O)c1cccc2ccccc12` (configuration not stated) came in with a melting point of 162 to 164 °C.
Then `COc1ccc2nc(NC(=O)C(CC3CCCC3)c3ccc(S(=O)(=O)N(C)Cc4ccccc4)cc3)sc2n1` (configuration not stated), with 206 to 208 °C.
Then `NS(=O)(=O)c1cccc(NC(=O)c2cnn3c(C(F)(F)F)cc(-c4ccc(C(F)(F)F)cc4)nc23)c1`, with 155 °C; and `CCOC(=O)C(C)(C)Oc1ccc(-c2ccc(CCNC(=O)c3ccc(OC)c(OC)c3)cc2)cc1`, with 118 °C.
`CCC(C)Nc1c(N)cc(C)c(C)c1[N+](=O)[O-]` (configuration not stated) yielded a melting point of 36 to 37 °C.
`CCNSc1ccc([N+](=O)[O-])cc1C(Cl)(Cl)Cl` registered a melting point of 80 °C.
For `COc1cncnc1N1CCN(CCCc2c[nH]c3ccc(N(C)S(=O)(=O)C(F)(F)F)cc23)CC1`, the melting point is > 230 °C.
In the case of `C/C=C(\C(=O)N(CC)CC)c1cc(OC)c(O)c2c(Cc3ccccc3)cccc12` it was 86 to 87 °C.
On to `OCC1CCC(O)C1O` (configuration not stated), for which the melting point was in the range of 157 to 159 °C.
Then `CC(C)(C)c1ccc(-c2nn3c(=O)c([N+](=O)[O-])c(Cl)nc3s2)cc1`, with 245 to 248 °C; and `O=C(OCCN1CCN(c2ccc(Cl)cc2)CC1)c1sccc1Nc1ccnc2c(C(F)(F)F)cccc12`, with 155 °C.
For `COc1ccc(-c2nc(N)ncc2-c2ccc(=O)n(C(C)C)n2)cc1F`, the melting point came to 174 °C.
On to `ON=Cc1cc(Br)ccc1OCc1ccccc1`, for which the melting point was in the range of 132 to 134 °C.
Then `CC(C)(O)Cn1cnc2cnc3ccccc3c21`, with 169 to 170 °C; and `O=C(Nc1ccc(F)c(NC(=S)Nc2cc(Cl)cc(Cl)c2)c1)c1ccc(F)c(F)c1`, with 197 °C; and `CCCCCc1ccc(OC(=O)c2ccc(O)cc2Cl)cc1`, with 149 to 151 °C.
`CCCCCc1ccc(C(=O)CCCCC(=O)O)cc1` had a melting point of 84 to 86 °C.
In the case of `NC1CC2=CNC=C3C=COCC1=C32` (configuration not stated), the melting point is 202 to 203 °C.
For `CC12CCC3c4ccc(C(=O)O)cc4CCC3C1CCC2C(=O)c1cc(F)cc(F)c1` (configuration not stated), the melting point lay within 258 to 261 °C.
Then `c1ccc2c(c1)C[C@@H]1c3ccccc3N[C@H]21` (relative stereo), with 107 °C; and `C=Cc1ncn2c1CN(C)C(=O)c1c(Cl)cccc1-2`, with 205 to 207 °C.
`O=C1NCN(c2ccccc2)C12CCN(CCCn1c(=O)[nH]c3cc(Cl)c(Cl)cc31)CC2` showed a melting point of 275 °C.
In turn, `O=S(=O)(CC(Cl)(c1ccccc1)c1cc(Cl)ccc1Cl)CC(Cl)(c1ccccc1)c1cc(Cl)ccc1Cl` (configuration not stated) returned a melting point of 136 °C.
Then `CCCCCCCNC(=O)N(C)c1cccc(-c2ccc(CCC(=O)O)c(F)c2)c1`, with 92 to 93 °C.
`COc1ccc(Oc2cccc(C3C4=C(CC(C)(C)CC4=O)NC4=C3C(=O)CC(C)(C)C4)c2)cc1` yielded a melting point of 210 to 212 °C.
For the compound `Cc1nc(Br)cnc1N`, the melting point is 51 to 52 °C.
As to `CN1CC(CO)C=C2c3cccc4c3c(cn4C)CC21` (configuration not stated), the melting point lay in the range of 216 to 217 °C.
In turn, `Cc1c(F)c(F)cc(C(=O)O)c1Cl` gave a melting point of 121 to 122 °C.
In turn, `COc1cc(N)c([N+](=O)[O-])cc1I` came in with a melting point of 189 °C.
Turning to `O=C(CCCCC1CCSS1)N1CCSCC1` (configuration not stated), the melting point was 31 to 32 °C.
As to `CSc1nc(=O)n(-c2ccccc2F)c(=O)[nH]1`, the melting point was in the range of 196 to 199 °C.
In turn, `CCC1CN(Cc2c(C)cc(C)cc2C)CCN1` (configuration not stated) yielded a melting point of 111 to 114 °C.
In the case of `Cc1noc(C)c1-c1ccccc1OC1SCC(O)C(O)C1O` (configuration not stated) it was 110 to 117 °C; in that of `O=C1C(=O)c2ccccc2C2=C1SCC1(CCN(CC(O)COc3ccc4ccccc4c3)CC1)O2` (configuration not stated), 164 to 167 °C.
`NS(=O)(=O)c1ccc(-n2nc(CCCNC(=O)Nc3ccc(C(F)(F)F)cc3)cc2-c2ccccc2)cc1`: the melting point fell in the range of 185 to 186 °C.
`CCOC(=O)N(Cn1cc(Cl)cnc1=O)c1ccccc1`: the melting point came to 174 °C.
Then `C=C(C)C(=O)Oc1ccccc1NS(C)(=O)=O`, with 88 to 90 °C.
In turn, `CCc1cc(O)n(-c2ccccn2)n1` returned a melting point of 189 °C.
`O=c1oc(=O)n(-c2ccc(F)cc2)c2ccccc12`: the melting point was 199 to 201 °C.
Take `COC(=O)c1cc(C(=O)c2c(C)c(OC)c3ccc(O)cn23)ccc1N`: the melting point is 216 °C.
Compound `NC(=O)c1c(Cl)c(-c2ccccc2)n2c1CN(S(=O)(=O)c1ccc(-c3ccon3)s1)CC2` registered a melting point of 186 to 190 °C.
On to `CCOC(=O)C1(O)CSC(O)(C(=O)OCC)CS1` (configuration not stated), for which the melting point lay in the range of 139 to 143 °C.
The compound `COc1ccc(/C=C(\C#N)c2ccccc2OC)cc1OC1CCCC1` had a melting point of 85 to 87.5 °C.
Consider `CC1(c2nn(-c3ccc([N+](=O)[O-])cc3Cl)c(=O)o2)CC1`, for which the melting point was in the range of 95 to 97 °C.
Regarding `O=[N+]([O-])c1ccc(Oc2ccc3cc(Oc4ccc([N+](=O)[O-])c(O)c4)ccc3c2)cc1O`, the melting point lay in the range of 244 to 246 °C.
`CC(C)CC(C(=O)OCc1ccccc1)N1C(=O)C2(CCCN2C(=O)OC(C)(C)C)CC1O` (mixture of isomers) came in with a melting point of 134 to 135 °C.
In the case of `CC(=O)c1cc(-c2ccncc2)sc1N1CCN(C)CC1` it was 115 to 117 °C; in that of `Cc1ccc(S(=O)(=O)n2ccc3cc(Br)ccc32)cc1`, 135 °C; in that of `Cc1oc(COc2ccc(/C=C/CO)cc2)nc1-c1ccccc1`, 154 to 155 °C.
In the case of `Cc1cc(Br)ccc1-n1c(CF)nc2ccc([N+](=O)[O-])cc2c1=O` it was 208 to 210 °C; in that of `CCOC(=O)C(Cc1cc2ccccc2[nH]c1=O)NC(=O)c1ccc(OC)cc1` (configuration not stated), 206 to 208 °C.
Turning to `Cc1cc(-n2ccnc2)c2cccc(OCc3c(Cl)ccc(S(=O)(=O)N4CCC[C@H]4C(=O)NCCCCCN(C)C)c3Cl)c2n1`, the melting point stood at 85 °C.
Then `COc1ccnc(CCc2nc3cc(-c4ccc(S(=O)(=O)N5CCOCC5)cc4)cnc3[nH]2)c1`, with 210 to 212 °C; and `Cc1cc(OC(F)F)cc(NC(=O)NS(=O)(=O)c2ccccc2Cl)n1`, with 169 to 170 °C.
In the case of `CN(O)C(=O)Cc1ccc2c(c1)C(=O)c1ccccc1CO2` it was 118 to 120 °C; in that of `CC(C)(C)c1cc(CCC(=O)Nc2ccc(S(=O)(=O)NCCBr)cc2)cc(C(C)(C)C)c1O`, 153 to 155 °C.
Regarding `Oc1cccc(CCCCn2ccnc2)c1`, the melting point lay within 133 to 134 °C.
In the case of `COc1ccc2c(c1)C(OC(C)C)=C(C(=O)O)S2=O` (configuration not stated) it was 184 to 187 °C.
As to `COc1ccc2c(c1)C(C(=O)N(Cc1ccc(N)cc1)c1ccc(C(C)C)cc1)CCC2` (configuration not stated), the melting point lay in the range of 115 to 117 °C.
`COC(=O)[C@H]1Cc2ccc(C)cc2C(=O)[C@H](c2ccccc2)S1` (relative stereo) showed a melting point of 136 to 137 °C.
For the compound `COCCn1nnc2cc3c(=O)n(C(C)Cn4nccn4)nnc3cc2c1=O` (configuration not stated), the melting point fell in the range of 145 to 146 °C.
With `O=C1NCc2c1c1c(c3[nH]c4ccccc4c23)Cc2ccc(Br)cc2-1`, the melting point is > 340 °C.
With `COC(=O)Cn1c(=O)c2ccccc2n(CCCCl)c1=O`, the melting point lay in the range of 144 to 146 °C.
Compound `CC(=O)c1cn2c3c(cccc13)CCC2` displayed a melting point of 106 to 108 °C.
Then `Cn1c2ccccc2c2nc3cccc(CCl)c3nc21`, with 204 to 206 °C; and `N=C(N)c1ccc(NC(C(=O)O)c2ccccc2OCC(=O)O)cc1` (racemic), with 223 °C; and `COc1ccc(C[C@H](Nc2nc3ccc(Cl)cc3cc2C(=O)O)C(=O)O)cc1`, with 155 to 158 °C.
In the case of `Cn1cc(-c2ncc(OC3SCC(O)C(O)C3O)cc2F)cn1` (configuration not stated) it was 206 °C.
Take `COC(=O)C1=C(C)NC(C(=N)N)=C(C(=O)OC(C)C)C1c1ccccc1[N+](=O)[O-]` (configuration not stated): the melting point came out at 203 °C.
Turning to `CCOC(=O)CCCCCCCSc1nc(-c2ccccc2)c(-c2ccccc2)[nH]1`, the melting point is 77 to 79 °C.
On to `Fc1ccc2[nH]nc(-c3ccccc3)c2c1`, for which the melting point was 124 to 125 °C.
`CC(=O)Oc1c(C=C(C#N)C#N)n(C(C)=O)c2ccccc12`: the melting point was in the range of 250 to 252 °C.
On to `CCNC(=O)NCc1cccc2c1C(=O)N(C1(C)CCC(=O)NC1=O)C2=O` (configuration not stated), for which the melting point was 220 to 222 °C.
In the case of `COC1CC(C)(C)Cc2c1c(C)nn2-c1ccccn1` (configuration not stated) it was 66 to 68 °C; in that of `C=CCOc1ccc(C#N)c(OC(C(=O)OC)c2ccccc2C)c1` (racemic), 98 to 99 °C.
In the case of `Cc1cc(C)c(N2CCCc3c2[nH]n(C)c3=O)c(Cl)c1`, the melting point is 95.9 to 99.9 °C.
For the compound `CC1=NC(=O)C(Cc2c[nH]c3ccccc23)N(O)C1=O` (configuration not stated), the melting point was in the range of 166 to 168 °C.
`Cc1nnc2n1-c1sc(CCS(=O)(=O)N3CCN(C)CC3)cc1C(c1ccccc1Cl)=NC2` gave a melting point of 148 to 150 °C.
`Cc1[nH]c(C(=O)Nc2ccc3c(c2)OCCO3)c(C)c1-c1nc2ccc(C(=O)c3ccccc3)cc2[nH]1` returned a melting point of 145 to 147 °C.
